Here are results for 32 molecules from ChEMBL document CHEMBL1134659, “Amino acid/spermine conjugates: polyamine amides as potent spermidine uptake inhibitors” (J Med Chem, 2001).

What all share (assay type): functional, cell-based
Experiment [1] concerns MDA-MB-231. In words: In vitro inhibition of MDA-MB-231 (Human breast caner) cell growth.
Experiment [2] deals with MDA-MB-231. Description: In vitro inhibition of [3H]spermidine uptake in MDA-MB-231 (Human breast cancer) cells.
Experiment [3] has as its system MDA-MB-231. In words: Inhibition of [3H]spermidine transport into MDA-MB-231 (human breast cancer) cells.

Broadly, the EC50 is the midpoint of the concentration-response curve. A lower EC50 goes with higher potency in that assay. For orientation: Ki means the dissociation constant of the complex between target and ligand, obtained from inhibition or displacement. Low readings indicate higher affinity, high ones lower affinity. For `NCCCNCCCCNCCCNC(=O)[C@@H](N)CCC(N)=O`, the EC50 in the experiment with MDA-MB-231 [1] is more than 300000 nM. Also, in the experiment with MDA-MB-231 [2], the inhibition constant Ki was 177 nM.
In the same order, the values of `NCCCNCCCCNCCCNC(=O)[C@@H](N)Cc1ccccc1` are more than 100000 nM and 443 nM.
With `CC(C)C[C@H](N)C(=O)NCCCNCCCCNCCCN`, the EC50 in the experiment on MDA-MB-231 [1] was more than 300000 nM. The same molecule registered a Ki in the experiment with MDA-MB-231 [2] of 46 nM.
For the molecule `NCCCNCCCCNCCCNC(=O)[C@@H]1CCCN1`, the EC50 in the experiment on MDA-MB-231 [1] was 93000 nM. This molecule displayed a Ki in the experiment on MDA-MB-231 [2] of 38 nM.
The like results for `C[C@H](N)C(=O)NCCCNCCCCNCCCN` were, in that order, more than 300000 nM and 144 nM.
In the experiment with MDA-MB-231 [3], `NCCCNCCCCNCCCNC(=O)C12CC3CC(CC(C3)C1)C2` came in with a Ki of 672 nM.
Turning to `CC(C)[C@H](N)C(=O)NCCCNCCCCNCCCN`, a half-maximal response in the experiment on MDA-MB-231 [1] (EC50) required 16000 nM. This molecule also returned a Ki with MDA-MB-231 [2] of 84 nM.
`CC(C)(C)[C@H](N)C(=O)NCCCNCCCCNCCCN`: the EC50 in the experiment with MDA-MB-231 [1] was 11000 nM. This molecule also yielded a Ki in the experiment with MDA-MB-231 [2] of 127 nM.
The like results for `CC(C)(N)C(=O)NCCCNCCCCNCCCN` were, in that order, 8000 nM and 191 nM.
In the same order, the values of `NCCCNCCCCNCCCNC(=O)[C@@H](N)CO` are 26000 nM and 55 nM.
`NCCCNCCCCNCCCNC(=O)CC12CC3CC(CC(C3)C1)C2`: the Ki in the experiment on MDA-MB-231 [3] came out at 256 nM.
With `NCCCNCCCCNCCCNC(=O)[C@@H](N)CCCN`, in the experiment with MDA-MB-231 [1], a half-maximal effect (EC50) was put at 3000 nM. Besides, in the experiment on MDA-MB-231 [2], the Ki came to 47 nM.
Turning to `CC(C)(C)OC(=O)NCCCNCCCCNCCCN`, the Ki with MDA-MB-231 [3] came out at 86 nM.
In the experiment with MDA-MB-231 [1], `NCCCNCCCCNCCCNC(=O)[C@H](N)Cc1c[nH]c2ccccc12` registered an EC50 of 205000 nM. This molecule also displayed a Ki in the experiment on MDA-MB-231 [2] of 63 nM.
In turn, `CC(=O)NCCCNCCCNCCCN` came in with a Ki in the experiment with MDA-MB-231 [3] of more than 1000 nM.
The same measure, in the same setting: the result for `CCCCCC(=O)NCCCNCCCCNCCCN` reads 284 nM.
In turn, `NCCCNCCCCNCCCNC(=O)[C@@H](N)Cc1c[nH]c2ccccc12` yielded an EC50 in the experiment with MDA-MB-231 [1] of 15000 nM. The Ki with MDA-MB-231 [2] worked out at 119 nM.
In the same order, the values of `NCCCNCCCCNCCCNC(=O)[C@@H](N)CC(N)=O` are 98000 nM and 95 nM.
In the same order, the values of `CC(C)[C@@H](N)C(=O)NCCCNCCCCNCCCN` are 9000 nM and 58 nM.
On to `NCCCNCCCCNCCCNC(=O)[C@@H](N)Cc1ccc(O)cc1`, for which, in the experiment on MDA-MB-231 [1], the midpoint of the response, the EC50, lay at 95000 nM. Moreover, in the experiment on MDA-MB-231 [2], affinity was put at a Ki of 116 nM.
In the same order, the values of `NCCCNCCCCNCCCNC(=O)[C@@H](N)CC1CCCCC1` are 8000 nM and 196 nM.
Regarding `C[C@H](O)[C@H](N)C(=O)NCCCNCCCCNCCCN`, the EC50 with MDA-MB-231 [1] was determined as 6000 nM. Further, affinity with MDA-MB-231 [2] was put at a Ki of 213 nM.
The like results for `NCCCNCCCCNCCCNC(=O)CN` were, in that order, more than 100000 nM and 87 nM.
The like results for `CCC(C)[C@H](N)C(=O)NCCCNCCCCNCCCN` (stereo partly drawn) were, in that order, 9000 nM and 150 nM.
As to `NCCCNCCCCNCCCNC(=O)Cc1cccc2ccccc12`, the affinity in the experiment on MDA-MB-231 [3], expressed as Ki, was 178 nM.
Turning to `CSCC[C@H](N)C(=O)NCCCNCCCCNCCCN`, the EC50 in the experiment with MDA-MB-231 [1] is more than 300000 nM. In the experiment with MDA-MB-231 [2], this molecule showed a Ki of 65 nM.
The like results for `NCCCNCCCCNCCCNC(=O)CCN` were, in that order, more than 300000 nM and 65 nM.
Take `N=C(N)NCCCCCCC(=O)NC(O)C(=O)NCCCCNCCCN` (stereo not drawn): the Ki in the experiment with MDA-MB-231 [3] was 81 nM.
Same read-out and setting: as for `NCCCNCCCCNCCC(=O)NCCCCCNC(=O)[C@H](CC(N)=O)NC(=O)Cc1ccc(O)cc1O` [JORO SPIDER TOXIN 3], the figure is 190 nM.
Still for that read-out and setting: the result for `NCCCCN` [PUTRESCINE] reads 1280 nM; that for `NCCCCNCCCN` [SPERMIDINE], 113 nM; that for `NCCCNCCCCNCCCN` [SPERMINE], 280 nM.
